Square brackets hold non-standard residues; d marks the D form. Ends that are not written are not given here. pGlu = O=C1CC[C@@H](C(=O)O)N1
Key:
Format in all cases: cell-based
GAL2R [1] = target: T1, GAL2R (Homo sapiens, UniProt O43603); assay: Fluo-4 Direct calcium assay (Ca efflux) in HEK293 cells overexpressing GAL2R; settings: Table 3; HEK293 cells stably overexpressing GAL2R; Fluo-4, from 10 µM; (average) ratio, (n) in cell = number of assays; NA = ratio above 1000
T1 sequence (O43603 1-387): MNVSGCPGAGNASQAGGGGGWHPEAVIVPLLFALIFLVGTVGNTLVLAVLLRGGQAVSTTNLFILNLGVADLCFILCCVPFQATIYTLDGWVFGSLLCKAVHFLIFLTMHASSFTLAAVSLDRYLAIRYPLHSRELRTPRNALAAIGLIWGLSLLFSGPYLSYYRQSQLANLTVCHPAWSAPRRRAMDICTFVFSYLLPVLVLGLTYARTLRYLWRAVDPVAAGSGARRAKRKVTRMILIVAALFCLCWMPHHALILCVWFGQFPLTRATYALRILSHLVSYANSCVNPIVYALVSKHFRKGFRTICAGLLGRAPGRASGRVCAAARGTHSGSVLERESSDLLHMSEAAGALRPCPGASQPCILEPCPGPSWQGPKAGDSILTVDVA
Experimental: Calcium efflux was measured by using a Fluo-4 Direct Calcium Assay purchased from Thermo Fisher Scientific. HEK293 cells with stable overexpression of GAL2R (HEKR2) (kindly provided by Harald Dargatz, Molecular, Cellular and Pharmacobiology Section, Institute of Pharmaceutical Biology, University of Bonn, 53,115 Bonn, Germany) were used for analysis of the lanthipeptides. HEKR2 cells were seeded in a 96-well plate and grown overnight in DMEM supplemented with 10% FBS, 1% penicillin–streptomycin, 100 µg/ml Normocin, and 500 µg/ml G418 at 37 °C, 5% CO2 in a humidified incubator.
The next day, when the cells were nearly confluent, an equal amount of 2 × Fluo-4 Direct™ calcium reagent loading solution, containing 5 mM probenecid, was added to the wells, and the plate was incubated for 1 h at 37 °C. A serial 3 × dilution of the agonist compound in water was made, and 10 µl of the serial dilutions was applied to the cells in duplicate. The starting concentration of agonist in the assay was 10 µM. After 1–2 h of incubation at room temperature, the fluorescence was measured with excitation at 485/20 nm and emission at 528/20 nm with a Synergy HT Biotek reader.

GAL1R [2] = target: T2, GAL1R (Homo sapiens, UniProt P47211); assay: PathHunter eXpress β-arrestin recruitment assay, GAL1R; parameters: expressed in transfected cells; settings: Table 3; CHO-K1 cells co-expressing GAL1R and β-arrestin 2; 10 µM to 5 nM; (average) ratio, (n) in cell = number of assays; NA = ratio above 1000
T2 sequence (P47211 1-349): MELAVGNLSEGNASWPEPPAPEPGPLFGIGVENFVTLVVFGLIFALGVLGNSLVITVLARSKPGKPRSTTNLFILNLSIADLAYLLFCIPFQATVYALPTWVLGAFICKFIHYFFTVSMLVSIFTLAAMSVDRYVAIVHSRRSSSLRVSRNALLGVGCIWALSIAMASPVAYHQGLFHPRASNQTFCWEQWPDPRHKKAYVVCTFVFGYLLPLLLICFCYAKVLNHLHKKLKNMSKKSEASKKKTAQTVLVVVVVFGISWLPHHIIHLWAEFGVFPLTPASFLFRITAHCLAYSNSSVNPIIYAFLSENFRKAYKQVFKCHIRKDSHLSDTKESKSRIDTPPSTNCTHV
Experimental: (§1) To evaluate the ability of lanthipeptides to recruit ß-arrestins via GAL1R or via GAL2R, we used the PathHunter® eXpress GAL1R, CHO-K1, β-arrestin GPCR Assay and the PathHunter® eXpress GAL2R, CHO-K1, β-arrestin, GPCR Assay from Eurofins-DiscoverX. The assays were performed according to the manufacturer’s instructions. Briefly, for one assay, CHO-K1 cells co-expressing GAL1R or GAL2R and β-arrestin (isoform 2) were diluted in AssayComplete™ Cell Plating Reagent, and 100 µl was seeded into each well of a 96-well plate. The plate was incubated at 37 °C, 5% CO2 in a humidified incubator. A serial 3 × dilution of the lanthipeptides in water was made (10 µM to 5 nM). After 48 h of incubation, 10 µl of the serial dilutions was applied to the cells in duplicate. The agonists were incubated for 90 min at 37 °C. Next, 55 µL of Working Detection Solution was added, and after 1 h of incubation at room temperature in the dark, the chemiluminescent signal was read with a Synergy HT Biotek reader.

GAL1R [3] = target: T2, GAL1R; assay: cAMP Hunter eXpress GAL1R CHO-K1 GPCR assay (inhibition of forskolin-induced cAMP); parameters: expressed in transfected cells; settings: Table 3; CHO-K1 cells expressing GAL1R; 20 µM forskolin; 10 µM to 5 nM; (average) ratio, (n) in cell = number of assays; NA = ratio above 1000
Experimental: To evaluate the ability of lanthipeptides to […] via GAL1R signaling, we used the cAMP Hunter™ eXpress GAL1R CHO-K1 GPCR Assay from Eurofins-DiscoverX. The assay was performed according to the manufacturer’s instructions. Briefly, for one assay, CHO-K1 cells expressing GAL1R were diluted in AssayComplete™ Cell Plating 2 Reagent, and 100 µl was seeded into each well of a 96-well plate. The plate was incubated at 37 °C, 5% CO2 in a humidified incubator. After 24 h of incubation, the media was aspirated, and 45 µl cell assay buffer/antibody mixture was added to all wells. […] Fifteen µl of the serial dilutions was applied in duplicates to the cells. The concentration of forskolin in the assay was 20 µM. The agonists were incubated for 30 min at 37 °C. Next, 15 µL Antibody Solution and 60 μL cAMP Working Detection Solution were added, and the plate was incubated for 1 h in the dark at room temperature. Finally, 60 μL cAMP Solution A was added and, after 3 h of incubation in the dark at room temperature, the chemiluminescent signal was read with a Synergy HT Biotek reader.

GAL2R [4] = target: T1, GAL2R; assay: PathHunter eXpress β-arrestin recruitment assay, GAL2R; parameters: expressed in transfected cells; settings: Table 3; CHO-K1 cells co-expressing GAL2R and β-arrestin 2; 10 µM to 5 nM; (average) ratio, (n) in cell = number of assays; NA = ratio above 1000
Experimental: as §1

Substance | EC50 ratios to Gal-(1-15), GAL2R Ca-efflux (GAL2R [1]) | EC50 ratios to Gal-(1-15), GAL1R ß-Arrestin (GAL1R [2]) | EC50 ratios to Gal-(1-15), GAL1R cAMP (GAL1R [3]) | EC50 ratios to Gal-(1-15), GAL2R ß-Arrestin (GAL2R [4])
GWNLNAAGYLLGPTAVC (also: sidechain bridge or staple (positions not given here)) [Variant M85, methyllanthionine-containing galanin variant produced in L. lactis] | 4.7 (1) | 18.0 (1) | 11.6 (1) | 6.2 (1)
GWNLNAAGYLLGATAVC (also: sidechain bridge or staple (positions not given here)) [Variant M90, methyllanthionine-containing galanin variant produced in L. lactis] | 4.6 (1) | 2.7 (1) | 4.9 (1) | 3.2 (1)
GWNLNAAGYLLGPHATGNCR (also: sidechain bridge or staple (positions not given here)) [Variant M74, methyllanthionine-containing galanin variant produced in L. lactis] | 4.7 (1) | 2.3 (1) | 4.6 (1) | 2.6 (1)
[pGlu]WNLNAAGYLLGPTAVC (also: sidechain bridge or staple (positions not given here)) [Variant M87, pyroglutamate- and methyllanthionine-containing galanin variant] | 1.9 (2) | 260 (1) | NA (1) (NA is not active; ratios above 1000 were considered to be not active) | 4.8 (1)
GWNLNAAGYLLATHACGNHR (also: sidechain bridge or staple (positions not given here)) [Variant M50, methyllanthionine-containing galanin variant produced in L. lactis] | 3.5 (2) | 3.8 (1) | 12.5 (1) | 0.5 (1)
GWNLNAAGYLLGATAVCNHR (also: sidechain bridge or staple (positions not given here)) [Variant M51, methyllanthionine-containing galanin variant produced in L. lactis] | 2.9 (2) | 1.5 (2) | 3.6 (1) | 0.6 (2)
GWNLNAAGYLLATHACG (also: sidechain bridge or staple (positions not given here)) [Variant M89, methyllanthionine-containing galanin variant produced in L. lactis] | 2.7 (1) | 148 (1) | NA (1) (NA is not active; ratios above 1000 were considered to be not active) | 3 (1)
[pGlu]WNLNAAGYLLGATAVC (also: sidechain bridge or staple (positions not given here)) [Variant M91, pyroglutamate- and methyllanthionine-containing galanin variant] | 1.3 (1) | 3 (1) | NA (1) (NA is not active; ratios above 1000 were considered to be not active) | 1.5 (1)
GWNLNAAGYLLGTHACG (also: sidechain bridge or staple (positions not given here)) [Variant M84, methyllanthionine-containing galanin variant produced in L. lactis] | 6.3 (1) | 35 (1) | – | NA (1) (NA is not active; ratios above 1000 were considered to be not active)
GWNLNAAGYLLGPHTVGCHR (also: sidechain bridge or staple (positions not given here)) [Variant M52, methyllanthionine-containing galanin variant produced in L. lactis] | 1.9 (1) | 8.3 (1) | 7.5 (2) | 0.6 (1)
[pGlu]WNLNAAGYLLGPHTVGCHR (also: sidechain bridge or staple (positions not given here)) [Variant M83, pyroglutamate- and methyllanthionine-containing galanin variant] | 7.3 (1) | 123 (1) | NA (1) (NA is not active; ratios above 1000 were considered to be not active) | 78 (1)
GWNLNAATYLCGPHAVGNHR (also: sidechain bridge or staple (positions not given here)) [Variant M60, methyllanthionine-containing galanin variant produced in L. lactis] | 8.7 (1) | – | NA (2) (NA is not active; ratios above 1000 were considered to be not active) | NA (1) (NA is not active; ratios above 1000 were considered to be not active)

Source: article PMC8804135 (Neurotherapeutics, 2021)
